Earlier results as cited in US20120078160A1, “METHOD AND APPARATUS FOR CANCER THERAPY” (Gradiant Research, LLC, priority 2009, published 2012).

pKa: 7.93
Koct, octanol water partition coefficient (pH 7.4): 0.129
Compound: O=c1[nH]cc(F)c(=O)[nH]1 [5FU, 5-fluorouracil]
